Measured values from PubChem BioAssay (NCI).
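Tested at 5 concentrations; 48 h exposure; 96-well plates; endpoints linearly interpolated, else capped at highest concentration. GI50 marks 50% less growth. Definition used: TGI = concentration required for complete inhibition of growth.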

Experiments:
Assay in all cases: NCI-60 cell line screen, 48 h
OVCAR-4 ovarian = tested on: OVCAR-4 ovarian
MOLT-4 leukemia = tested on: MOLT-4 leukemia
HS 578T breast = tested on: HS 578T breast
LOX IMVI melanoma = tested on: LOX IMVI melanoma
A498 renal = tested on: A498 renal
CCRF-CEM leukemia = tested on: CCRF-CEM leukemia
SK-OV-3 ovarian = tested on: SK-OV-3 ovarian
MALME-3M melanoma = tested on: MALME-3M melanoma
EKVX NSCLC = tested on: EKVX NSCLC
NCI-H522 lung = tested on: NCI-H522 lung
IGROV1 ovarian = tested on: IGROV1 ovarian
NCI/ADR-RES ovarian = tested on: NCI/ADR-RES ovarian
UACC-257 melanoma = tested on: UACC-257 melanoma
HL-60(TB) leukemia = tested on: HL-60(TB) leukemia
NCI-H460 lung = tested on: NCI-H460 lung
MCF7 breast = tested on: MCF7 breast
SF-539 CNS = tested on: SF-539 CNS
SF-295 CNS = tested on: SF-295 CNS
M14 melanoma = tested on: M14 melanoma
RXF 393 renal = tested on: RXF 393 renal
DU-145 prostate = tested on: DU-145 prostate
SK-MEL-28 melanoma = tested on: SK-MEL-28 melanoma
SNB-19 CNS = tested on: SNB-19 CNS
SK-MEL-2 melanoma = tested on: SK-MEL-2 melanoma
SNB-75 CNS = tested on: SNB-75 CNS
A549 NSCLC = tested on: A549 NSCLC
UO-31 renal = tested on: UO-31 renal
CAKI-1 renal = tested on: CAKI-1 renal
RPMI-8226 leukemia = tested on: RPMI-8226 leukemia
NCI-H23 lung = tested on: NCI-H23 lung
T-47D breast = tested on: T-47D breast
SW-620 colon = tested on: SW-620 colon
OVCAR-5 ovarian = tested on: OVCAR-5 ovarian
ACHN renal = tested on: ACHN renal
HCT-116 colon = tested on: HCT-116 colon
OVCAR-8 ovarian = tested on: OVCAR-8 ovarian
UACC-62 melanoma = tested on: UACC-62 melanoma
SR leukemia = tested on: SR leukemia
HT29 colon = tested on: HT29 colon
NCI-H226 lung = tested on: NCI-H226 lung
U251 CNS = tested on: U251 CNS
COLO 205 colon = tested on: COLO 205 colon
TK-10 renal = tested on: TK-10 renal
786-0 renal = tested on: 786-0 renal
HCT-15 colon = tested on: HCT-15 colon
HOP-62 NSCLC = tested on: HOP-62 NSCLC
PC-3 prostate = tested on: PC-3 prostate
BT-549 breast = tested on: BT-549 breast
MDA-MB-435 = tested on: MDA-MB-435
KM12 colon = tested on: KM12 colon
HCC-2998 colon = tested on: HCC-2998 colon
SN12C renal = tested on: SN12C renal
MDA-MB-231 breast = tested on: MDA-MB-231 breast
SF-268 CNS = tested on: SF-268 CNS
OVCAR-3 ovarian = tested on: OVCAR-3 ovarian
SK-MEL-5 melanoma = tested on: SK-MEL-5 melanoma

With `Cc1[nH]n(-c2cccc(Cl)c2)c(=O)c1/C=C1\C=Nc2ccc(Br)cc21` the GI50 (OVCAR-4 ovarian) was 1.59 µM, the TGI (OVCAR-4 ovarian) was 2.95 µM and the GI50 (MOLT-4 leukemia) was 3.12 µM. For the same compound, the TGI (MOLT-4 leukemia) was 10.9 µM, the GI50 (HS 578T breast) was 2.46 µM and the TGI (HS 578T breast) was 8.04 µM. The GI50 (LOX IMVI melanoma) was 5.48 µM, the TGI (LOX IMVI melanoma) was 38 µM and the GI50 (A498 renal) was 2.08 µM. It also gave a TGI (A498 renal) of 5.18 µM, a GI50 (CCRF-CEM leukemia) of 2.95 µM and a TGI (CCRF-CEM leukemia) of 9.84 µM. It also gave a GI50 (SK-OV-3 ovarian) of 2.22 µM, a TGI (SK-OV-3 ovarian) of 4.53 µM and a GI50 (MALME-3M melanoma) of 3.15 µM. The TGI (MALME-3M melanoma) was 13.1 µM, the GI50 (EKVX NSCLC) was 5.45 µM and the TGI (EKVX NSCLC) was 73.3 µM. It also gave a GI50 (NCI-H522 lung) of 3.67 µM, a TGI (NCI-H522 lung) of 17.5 µM and a GI50 (IGROV1 ovarian) of 3.04 µM. For the same compound, the TGI (IGROV1 ovarian) was 9.34 µM, the GI50 (NCI/ADR-RES ovarian) was 3.4 µM and the TGI (NCI/ADR-RES ovarian) was 16 µM. The GI50 (UACC-257 melanoma) was 85.7 µM, the TGI (UACC-257 melanoma) was greater than 100 µM and the GI50 (HL-60(TB) leukemia) was 4.02 µM. For the same compound, the TGI (HL-60(TB) leukemia) was 33.6 µM, the GI50 (NCI-H460 lung) was 1.78 µM and the TGI (NCI-H460 lung) was 3.53 µM. For the same compound, the GI50 (MCF7 breast) was 5.95 µM, the TGI (MCF7 breast) was greater than 100 µM and the GI50 (SF-539 CNS) was 4.32 µM. It also gave a TGI (SF-539 CNS) of 16.7 µM, a GI50 (SF-295 CNS) of 3.6 µM and a TGI (SF-295 CNS) of 14.2 µM. For the same compound, the GI50 (M14 melanoma) was 14.1 µM, the TGI (M14 melanoma) was greater than 100 µM and the GI50 (RXF 393 renal) was 1.86 µM. For the same compound, the TGI (RXF 393 renal) was 4.01 µM, the GI50 (DU-145 prostate) was 5.71 µM and the TGI (DU-145 prostate) was greater than 100 µM. It also gave a GI50 (SK-MEL-28 melanoma) of 19.6 µM, a TGI (SK-MEL-28 melanoma) greater than 100 µM and a GI50 (SNB-19 CNS) of 5.79 µM. The TGI (SNB-19 CNS) was 25.7 µM, the GI50 (SK-MEL-2 melanoma) was 10.5 µM and the TGI (SK-MEL-2 melanoma) was 24.6 µM. It also gave a GI50 (SNB-75 CNS) of 1.25 µM, a TGI (SNB-75 CNS) of 3.37 µM and a GI50 (A549 NSCLC) of 2.27 µM. It also gave a TGI (A549 NSCLC) of 5.68 µM, a GI50 (UO-31 renal) of 2.08 µM and a TGI (UO-31 renal) of 6.57 µM. For the same compound, the GI50 (CAKI-1 renal) was 2.43 µM, the TGI (CAKI-1 renal) was 13.5 µM and the GI50 (RPMI-8226 leukemia) was 3.08 µM. The TGI (RPMI-8226 leukemia) was 22.6 µM, the GI50 (NCI-H23 lung) was 6.65 µM and the TGI (NCI-H23 lung) was 26.4 µM. It also gave a GI50 (T-47D breast) of 2.06 µM, a TGI (T-47D breast) of 6.26 µM and a GI50 (SW-620 colon) of 3.58 µM. The TGI (SW-620 colon) was greater than 100 µM, the GI50 (OVCAR-5 ovarian) was 3.1 µM and the TGI (OVCAR-5 ovarian) was 10.2 µM. For the same compound, the GI50 (ACHN renal) was 2.46 µM, the TGI (ACHN renal) was 5.9 µM and the GI50 (HCT-116 colon) was 2.65 µM. It also gave a TGI (HCT-116 colon) of 7.03 µM, a GI50 (OVCAR-8 ovarian) of 3.52 µM and a TGI (OVCAR-8 ovarian) of 13.8 µM. The GI50 (UACC-62 melanoma) was 4.34 µM, the TGI (UACC-62 melanoma) was 18.2 µM and the GI50 (SR leukemia) was 1.88 µM. The TGI (SR leukemia) was 3.99 µM, the GI50 (HT29 colon) was 4.5 µM and the TGI (HT29 colon) was greater than 100 µM. It also gave a GI50 (NCI-H226 lung) of 5.81 µM, a TGI (NCI-H226 lung) of 28.5 µM and a GI50 (U251 CNS) of 2.83 µM. It also gave a TGI (U251 CNS) of 8.65 µM, a GI50 (COLO 205 colon) of 2 µM and a TGI (COLO 205 colon) of 4.29 µM. For the same compound, the GI50 (TK-10 renal) was 2.6 µM, the TGI (TK-10 renal) was 5.18 µM and the GI50 (786-0 renal) was 2.14 µM. For the same compound, the TGI (786-0 renal) was 4.68 µM, the GI50 (HCT-15 colon) was 5.25 µM and the TGI (HCT-15 colon) was greater than 100 µM. The GI50 (HOP-62 NSCLC) was 2.33 µM, the TGI (HOP-62 NSCLC) was 5.14 µM and the GI50 (PC-3 prostate) was 3.64 µM. It also gave a TGI (PC-3 prostate) of 22.3 µM, a GI50 (BT-549 breast) of 7.89 µM and a TGI (BT-549 breast) of 30 µM. It also gave a GI50 (MDA-MB-435) of 6.78 µM, a TGI (MDA-MB-435) greater than 100 µM and a GI50 (KM12 colon) of 6.65 µM. The TGI (KM12 colon) was greater than 100 µM, the GI50 (HCC-2998 colon) was 14.3 µM and the TGI (HCC-2998 colon) was greater than 100 µM. It also gave a GI50 (SN12C renal) of 2.88 µM, a TGI (SN12C renal) of 11.9 µM and a GI50 (MDA-MB-231 breast) of 3.4 µM. The TGI (MDA-MB-231 breast) was 15.3 µM, the GI50 (SF-268 CNS) was 5.49 µM and the TGI (SF-268 CNS) was 26.4 µM. It also gave a GI50 (OVCAR-3 ovarian) of 1.82 µM, a TGI (OVCAR-3 ovarian) of 3.54 µM and a GI50 (SK-MEL-5 melanoma) of 9.48 µM. For the same compound, the TGI (SK-MEL-5 melanoma) was greater than 100 µM.
